Literature values, collected in patent US7745665B2, “Substituted phenethylamines” (Auspex Pharmaceuticals, Inc., priority 2007, dated 2010).

Conditions: oxidation of the methylene group alpha to the nitrogen; humans

**Q.** Which “hydroxymandelic acid metabolite as share of the recovered mass balance” value does the source give for `CNC[C@H](O)c1cccc(O)c1` [Phenylephrine, (R)-3-(1-hydroxy-2-methylamino-ethyl)-phenol] here?
**A.** Its value is “more than 50%”.
